# Where two headings read alike, the source gives them in different places.
# What was measured:
# Assay type in all cases: cell-based
# [1] = tested on: human colon cancer cell line (HT115); test: MTT cytotoxicity assay, colon cancer cell line
# Method: (§1) The compounds include those whose preparations are described above and compounds made by preparative methods corresponding to the methods described above.
# (§2) Compounds were diluted over a range of concentrations and added to cells over 1 to 3 days. The cytotoxity was determined using a MTT assay at the end of each experiment.
# [2] = tested on: human breast cancer cell line (MDA MB 231); test: MTT cytotoxicity assay, breast cancer cell line; conditions: Homo sapiens, MDA-MB-231, read-out: EC50/μM Breast MDA MB231
# Method: as §1, §2
# [3] = tested on: human prostate cancer cell line (PC-3); test: MTT cytotoxicity assay, prostate cancer cell line; conditions: read-out: EC50/μM Prostate PC-3
# Method: as §1, §2
# [4] = Homo sapiens, HT115, read-out: EC50/μM Colon HT115, MTT assay, compounds added to cells over 1 to 3 days
# [5] = MTT assay, compounds added to cells over 1 to 3 days, read-out: EC50/μM Colon HT115
# [6] = MTT assay, compounds added to cells over 1 to 3 days
Compound,"EC50 [1, 4] [µM]",EC50 [2] [µM],EC50 ([3]; Homo sapiens) [µM],"EC50 ([1]; read-out: EC50/μM Colon HT115, MTT assay, compounds added to cells over 1 to 3 days) [µM]","EC50 [1, 5] [µM]","EC50 [3, 6] [µM]"
"O=c1[nH]c(=O)n([C@H]2CC(O)[C@@H](CO)O2)cc1/C=C/Br (stereo in doubt) [Example A, 5-(2-Bromovinyl)-2′-deoxyuridine, reference compound]",78.7,125,120,–,–,–
"COC(=O)[C@H](C)NP(=O)(OC[C@H]1O[C@@H](n2cc(/C=C/Br)c(=O)[nH]c2=O)CC1O)Oc1ccccc1 (stereo partly drawn) [Example 1, (E)-5-(2-Bromovinyl)-2′-deoxyuridine-5′-[phenyl-(methoxy-L-alaninyl)]-phosphate, reference compound]",244,79,155,244,–,–
"C[C@H](NP(=O)(OC[C@H]1O[C@@H](n2cc(/C=C/Br)c(=O)[nH]c2=O)CC1O)Oc1ccc(C(F)(F)F)cc1)C(=O)OCc1ccccc1 (stereo partly drawn) [Example 4, (E)-5-(2-Bromovinyl)-2′-deoxyuridine-5′-[para-trifluorophenyl-(benzoxy-L-alaninyl)]-phosphate]",7.4,31,9.3,–,–,–
"COC(=O)[C@H](C)NP(=O)(OC[C@H]1O[C@@H](n2cc(/C=C/Br)c(=O)[nH]c2=O)CC1O)Oc1ccc(F)cc1 (stereo partly drawn) [Example 5, (E)-5-(2-Bromovinyl)-2′-deoxyuridine-5′-[para-fluorophenyl-(methoxy-L-alaninyl)]-phosphate]",17,159,58,–,–,–
"CCOC(=O)[C@H](C)NP(=O)(OC[C@H]1O[C@@H](n2cc(/C=C/Br)c(=O)[nH]c2=O)CC1O)Oc1ccc(F)cc1 (stereo partly drawn) [Example 6, (E)-5-(2-Bromovinyl)-2′-deoxyuridine-5′-[para-fluorophenyl-(ethoxy-L-alaninyl)]-phosphate]",11,46,42,–,–,–
C[C@H](NP(=O)(OC[C@H]1O[C@@H](n2cc(/C=C/Br)c(=O)[nH]c2=O)CC1O)Oc1ccc(F)cc1)C(=O)OCc1ccccc1 (stereo partly shown) [Example 7],3.5,17,16,–,–,–
"C[C@H](NP(=O)(OC[C@H]1O[C@@H](n2cc(/C=C/Br)c(=O)[nH]c2=O)CC1O)Oc1ccc([N+](=O)[O-])cc1)C(=O)OCc1ccccc1 (stereo partly drawn) [Example 8, (E)-5-(2-Bromovinyl)-2′-deoxyuridine-5′-[para-nitrophenyl-(benzoxy-L-alaninyl)]-phosphate]",9,28,–,–,–,–
"CCOC(=O)[C@H](C)NP(=O)(OC[C@H]1O[C@@H](n2cc(/C=C/Br)c(=O)[nH]c2=O)CC1O)Oc1ccc([N+](=O)[O-])cc1 (stereo partly drawn) [Example 9, (E)-5-(2-Bromovinyl)-2′-deoxyuridine-5′-[para-nitrophenyl-(ethoxy-L-alaninyl)]-phosphate]",119,177,365,–,–,–
"COC(=O)[C@H](C)NP(=O)(OC[C@H]1O[C@@H](n2cc(/C=C/Br)c(=O)[nH]c2=O)CC1O)Oc1ccc([N+](=O)[O-])cc1 (stereo partly drawn) [Example 10, (E)-5-(2-Bromovinyl)-2 ′-deoxyuridine-5′-[para-nitrophenyl-(methoxy-L-alaninyl)]-phosphate]",96.7,105,10.4,–,–,–
"CCOC(=O)[C@H](C)NP(=O)(OC[C@H]1O[C@@H](n2cc(/C=C/Br)c(=O)[nH]c2=O)CC1O)Oc1ccc(Cl)cc1 (stereo partly drawn) [Example 11, (E)-5-(2-bromovinyl)-2′-deoxyuridine-5′-[4-chlorophenyl-(ethoxy-L-alaninyl)]-phosphate]",14.9,28.7,3.4,–,–,–
"C[C@H](NP(=O)(OC[C@H]1O[C@@H](n2cc(/C=C/Br)c(=O)[nH]c2=O)CC1O)Oc1ccc(Cl)cc1)C(=O)OCc1ccccc1 (stereo partly drawn) [Example 12, (E)-5-(2-bromovinyl)-2′-deoxyuridine-5′-[4-chlorophenyl-(benzoxy-L-alaninyl)]-phosphate]",3.4,6.2,2.4,–,–,–
"COC(=O)[C@H](C)NP(=O)(OC[C@H]1O[C@@H](n2cc(/C=C/Br)c(=O)[nH]c2=O)CC1O)Oc1ccc(Cl)cc1 (stereo partly drawn) [Example 13, (E)-5-(2-bromovinyl)-2′-deoxyuridine-5′-[4-chlorophenyl-(methoxy-L-alaninyl)]-phosphate]",70.2,61,13,–,–,–
"CC(C)(NP(=O)(OC[C@H]1O[C@@H](n2cc(/C=C/Br)c(=O)[nH]c2=O)CC1O)Oc1ccccc1)C(=O)OCc1ccccc1 (stereo partly drawn) [Example 14, (E)-5-(2-bromovinyl)-2′-deoxyuridine-5′-[phenyl-(benzoxy-α,α-dimethylglycinyl)]-phosphate]",14.5,19,5.1,–,–,–
"COC(=O)[C@H](C)NP(=O)(OC[C@H]1O[C@@H](n2cc(/C=C/Br)c(=O)[nH]c2=O)CC1O)Oc1ccc(C(F)(F)F)cc1 (stereo partly drawn) [Example 15, (E)-5-(2-bromovinyl)-2′-deoxyuridine-5′-[para-(trifluoromethyl)-phenyl-(methoxy-L-alaninyl)]-phosphate]",79.2,47,15,–,–,–
"COC(=O)C1(NP(=O)(OC[C@H]2O[C@@H](n3cc(/C=C/Br)c(=O)[nH]c3=O)CC2O)Oc2ccccc2)CCCC1 (stereo partly drawn) [Example 16, (E)-5-(2-Bromovinyl)-2′-deoxyuridine-5′-[phenyl-(methoxy-α,α-cycloleucinyl)]-phosphate]",77,79,16,–,–,–
"CCOC(=O)C1(NP(=O)(OC[C@H]2O[C@@H](n3cc(/C=C/Br)c(=O)[nH]c3=O)CC2O)Oc2ccccc2)CCCC1 (stereo partly drawn) [Example 17, (E)-5-(2-Bromovinyl)-2′-deoxyuridine-5′-[phenyl-(ethoxy-α, α-cycloleucinyl)]-phosphate]",81.3,44,41,–,–,–

Compound,"EC50 [1, 4] [µM]",EC50 [2] [µM],EC50 ([3]; Homo sapiens) [µM],"EC50 ([1]; read-out: EC50/μM Colon HT115, MTT assay, compounds added to cells over 1 to 3 days) [µM]","EC50 [1, 5] [µM]","EC50 [3, 6] [µM]"
"O=C(OCc1ccccc1)C1(NP(=O)(OC[C@H]2O[C@@H](n3cc(/C=C/Br)c(=O)[nH]c3=O)CC2O)Oc2ccccc2)CCCC1 (stereo partly drawn) [Example 18, (E)-5-(2-Bromovinyl)-2′-deoxyuridine-5′-[phenyl-(benzoxy-α, α-cycloleucinyl)]-phosphate]",9.7,78,33,–,–,–
"COC(=O)C1(NP(=O)(OC[C@H]2O[C@@H](n3cc(/C=C/Br)c(=O)[nH]c3=O)CC2O)Oc2ccc([N+](=O)[O-])cc2)CCCC1 (stereo partly drawn) [Example 19, (E)-5-(2-Bromovinyl)-2′-deoxyuridine-5′-[para-nitrophenyl-(methoxy-α,α-cycloleucinyl)]-phosphate]",38.2,56,88,–,–,–
"CCOC(=O)C1(NP(=O)(OC[C@H]2O[C@@H](n3cc(/C=C/Br)c(=O)[nH]c3=O)CC2O)Oc2ccc([N+](=O)[O-])cc2)CCCC1 (stereo partly drawn) [Example 20, (E)-5-(2-Bromovinyl)-2′-deoxyuridine-5′-[para-nitrophenyl-(ethoxy-α,α-cycloleucinyl)]-phosphate]",57.3,13,15,–,–,–
CCOC(=O)[C@H](C)NP(=O)(OC[C@H]1O[C@@H](n2cc(/C=C/Br)c(=O)[nH]c2=O)CC1O)Oc1ccc(C(F)(F)F)cc1 (stereo partly shown) [Example 25],4.6,33.8,–,–,–,–
"COC(=O)C1(NP(=O)(OC[C@H]2O[C@@H](n3cc(/C=C/Br)c(=O)[nH]c3=O)CC2O)Oc2ccc(C(F)(F)F)cc2)CCCC1 (stereo partly drawn) [Example 28, (E)-5-(2-Bromovinyl)-2′-deoxyuridine-5′-[para-trifluorophenyl-(methoxy-α,α-cycloleucinyl)]-phosphate]",21.2,28.8,–,–,–,–
"O=C(OCc1ccccc1)C1(NP(=O)(OC[C@H]2O[C@@H](n3cc(/C=C/Br)c(=O)[nH]c3=O)CC2O)Oc2ccc(C(F)(F)F)cc2)CCCC1 (stereo partly drawn) [Example 30, (E)-5-(2-Bromovinyl)-2′-deoxyuridine-5′-[para-trifluorophenyl-(benzoxy-α,α-cycloleucinyl)]-phosphate]",6.4,6.9,–,–,–,–
O=C(OCc1ccccc1)C(Cc1ccccc1)NP(=O)(OCC1OC(n2cc(C=CBr)c(=O)[nH]c2=O)CC1O)Oc1ccccc1 (stereo not shown) [Example 54],–,–,–,–,5.1,–
CCOC(=O)C(C)(C)NP(=O)(OCC1OC(n2cc(C=CBr)c(=O)[nH]c2=O)CC1O)Oc1ccc(C(F)(F)F)cc1 (stereo not shown) [Example 59],–,–,–,–,24.7,–
CCOC(=O)C(NP(=O)(OCC1OC(n2cc(C=CBr)c(=O)[nH]c2=O)CC1O)Oc1ccccc1)C(C)CC (stereo not shown) [Example 73],–,–,–,–,–,30.6
O=C(CNP(=O)(OCC1OC(n2cc(C=CBr)c(=O)[nH]c2=O)CC1O)Oc1ccc(Cl)cc1)OCc1ccccc1 (stereo not shown) [Example 77],–,–,–,–,–,150
CC(C)[C@H](NP(=O)(OC[C@H]1O[C@@H](n2cc(/C=C/Br)c(=O)[nH]c2=O)C[C@@H]1O)Oc1ccc(C(F)(F)F)cc1)C(=O)OCc1ccccc1 (stereo partly shown) [Example 78],–,–,–,–,–,1.6
CC(C)(NP(=O)(OCC1OC(n2cc(C=CBr)c(=O)[nH]c2=O)CC1O)Oc1ccc(F)cc1)C(=O)OCc1ccccc1 (stereo not shown) [Example 84],–,–,–,–,–,4.5
CC(C)C(NP(=O)(OCC1OC(n2cc(C=CBr)c(=O)[nH]c2=O)CC1O)Oc1ccccc1)C(=O)OCc1ccccc1 (stereo not shown) [Example 85],–,–,–,–,–,31.2
CC(C)C(NP(=O)(OCC1OC(n2cc(C=CBr)c(=O)[nH]c2=O)CC1O)Oc1ccc(Cl)cc1)C(=O)OCc1ccccc1 (stereo not shown) [Example 86],–,–,–,–,–,0.9
O=C(OCc1ccccc1)C(NP(=O)(OCC1OC(n2cc(C=CBr)c(=O)[nH]c2=O)CC1O)Oc1ccc(C(F)(F)F)cc1)c1ccccc1 (stereo not shown) [Example 91],–,–,–,–,–,0.7
"propenate-2′-deoxyuridine [Example 67, reference compound]",–,–,–,–,93.7,–

# From USRE47589E1, “Phosphoramidate compounds and methods of use” (NuCana plc, priority 2003, dated 2019)
